# Assay results from ChEMBL document CHEMBL4251644, “Synthesis and biological characterization of novel rose bengal derivatives with improved amphiphilicity for sono-photodynamic therapy” (Eur J Med Chem, 2018).
# Activity calls are given as the source filed them. No cut-off for these calls is given here.
# Key:
# [1] = Octanol-water partition coefficient, log P of the compound after 10 mins; format: physicochemical
# [2] = Drug uptake in human HepG2 cells at 5 uM after 2 hrs by confocal microscopy; format: ADME, cell-based; conditions: hepg2, 2 h
# [3] = Drug uptake in mouse B16F10 cells assessed as localization in mitochondria at 5 uM after 1.5 hrs by MitoTracker Green staining-based fluorescence assay; format: ADME; conditions: b16-f10, 1.5 h
# HepG2 [4] = experiment: Toxicity in human HepG2 cells up to 5 uM incubated in dark for 24 hrs by MTT assay; format: cell-based; conditions: hepg2, 24 h
# MCF7 [5] = experiment: Toxicity in human MCF7 cells up to 5 uM incubated in dark for 24 hrs by MTT assay; format: cell-based; conditions: mcf7, 24 h
# B16-F10 [6] = experiment: Toxicity in mouse B16F10 cells up to 5 uM incubated in dark for 24 hrs by MTT assay; format: cell-based; conditions: b16-f10, 24 h
# HepG2 [7] = experiment: Photodynamic anticancer activity in human HepG2 cells preincubated for 2 hrs followed by light exposure at 27 J/cm2 for 30 mins and subsequent incubation for 24 hrs by MTT assay; conditions: HepG2, light or radiation study
# MCF7 [8] = experiment: Photodynamic anticancer activity in human MCF7 cells preincubated for 2 hrs followed by light exposure at 27 J/cm2 for 30 mins and subsequent incubation for 24 hrs by MTT assay; conditions: MCF7, light or radiation study
# B16-F10 [9] = experiment: Photodynamic anticancer activity in mouse B16F10 cells preincubated for 2 hrs followed by light exposure at 27 J/cm2 for 30 mins and subsequent incubation for 24 hrs by MTT assay; conditions: B16-F10, light or radiation study
# [10] = Drug uptake in mouse B16F10 cells assessed as localization in lysosomes at 5 uM after 1.5 hrs by LysoTracker staining-based fluorescence assay; format: ADME, subcellular, Lysosome; conditions: b16-f10, 1.5 h
# HepG2 [11] = experiment: (§1) In vitro sonodynamic anticancer activity against human HepG2 cells at 25 uM preincubated for 2 hrs followed by exposure to ultrasound at 1.0 MHz and 2 W/cm2 intensity for 3 mins and subsequent incubation for 24 hrs by MTT assay; format: functional, cell-based
# HepG2 [12] = experiment: as §1, with “sono-photodynamic” for “sonodynamic”, “0.5” for “25”, “mins followed by immediate irradiation with light at 27 J/cm2 for 30 mins” for “mins”; format: functional, cell-based
# HepG2 [13] = experiment: Induction of intracellular ROS generation in human HepG2 cells at 1 uM preincubated for 2 hrs followed by light exposure at 27 J/cm2 for 30 mins by DCFH-DA staining-based fluorescence analysis; format: functional, cell-based
# HepG2 [14] = experiment: Induction of intracellular ROS generation in human HepG2 cells at 1 uM preincubated for 2 hrs followed by exposure to ultrasound at 1.0 MHz and 2 W/cm2 intensity for 3 mins by DCFH-DA staining-based fluorescence analysis; format: functional, cell-based
# HepG2 [15] = experiment: Induction of intracellular ROS generation in human HepG2 cells at 1 uM preincubated for 2 hrs followed by exposure to ultrasound at 1.0 MHz and 2 W/cm2 intensity for 3 mins followed by immediate irradiation with light at 27 J/cm2 for 30 mins by DCFH-DA staining-based fluorescence analysis; format: functional, cell-based
logP at 10 min [1],Drug uptake [2],Drug uptake [3],IC50 (HepG2 [7]),IC50 (MCF7 [8]),IC50 (B16-F10 [9]),Drug uptake [10],Structure (SMILES),Activity (HepG2 [4]),Activity (MCF7 [5]),Activity (B16-F10 [6]),Activity (HepG2 [11]),Activity (HepG2 [12]),Activity (HepG2 [13]),Activity (HepG2 [14]),Activity (HepG2 [15])
-0.56,Active,Active,> 5000 nM,> 5000 nM,> 5000 nM,Active,O=C([O-])c1c(Cl)c(Cl)c(Cl)c(Cl)c1-c1c2cc(I)c(=O)c(I)c-2oc2c(I)c([O-])c(I)cc12.[Na+].[Na+] [ROSE BENGAL SODIUM],Non-Toxic,Non-Toxic,Non-Toxic,–,–,–,–,–
0.91,Active,Active,2150 nM,2880 nM,2170 nM,Active,O=C(O)CCCCCCCOC(=O)c1c(Cl)c(Cl)c(Cl)c(Cl)c1-c1c2cc(I)c(=O)c(I)c-2oc2c(I)c(O)c(I)cc12,Non-Toxic,Non-Toxic,Non-Toxic,–,–,–,–,–

# More lines, now with the values behind:
Structure (SMILES),logP at 10 min [1],Drug uptake [2],Drug uptake [3],IC50 (HepG2 [7]),IC50 (MCF7 [8]),IC50 (B16-F10 [9]),Drug uptake [10],Activity (HepG2 [4]),Activity (MCF7 [5]),Activity (B16-F10 [6]),Activity (HepG2 [11]),Activity (HepG2 [12]),Activity (HepG2 [13]),Activity (HepG2 [14]),Activity (HepG2 [15])
O=C(CCCCCCCOC(=O)c1c(Cl)c(Cl)c(Cl)c(Cl)c1-c1c2cc(I)c(=O)c(I)c-2oc2c(I)c(O)c(I)cc12)Nc1cccc2ccccc12,0.94,Active,Active,880 nM,1260 nM,1440 nM,Active,Non-Toxic,Non-Toxic,Non-Toxic,inactive,–,–,–,–
COCCOCCOC(=O)CCCCCCCOC(=O)c1c(Cl)c(Cl)c(Cl)c(Cl)c1-c1c2cc(I)c(=O)c(I)c-2oc2c(I)c(O)c(I)cc12,0.92,Active,Active,280 nM,460 nM,780 nM,Active,Non-Toxic,Non-Toxic,Non-Toxic,Active,Active,Active,inactive,Active
O=C(CCCCCCCOC(=O)c1c(Cl)c(Cl)c(Cl)c(Cl)c1-c1c2cc(I)c(=O)c(I)c-2oc2c(I)c(O)c(I)cc12)Nc1cccc2cccnc12,1.21,Active,Active,610 nM,850 nM,1190 nM,Active,Non-Toxic,Non-Toxic,Non-Toxic,inactive,–,–,–,–
COCCOCCOCCOCCOC(=O)CCCCCCCOC(=O)c1c(Cl)c(Cl)c(Cl)c(Cl)c1-c1c2cc(I)c(=O)c(I)c-2oc2c(I)c(O)c(I)cc12,0.8,Active,Active,670 nM,1260 nM,1230 nM,Active,Non-Toxic,Non-Toxic,Non-Toxic,Active,–,–,–,–
